Data published in patent US20040220411A1, “Oxalic acid derivatives” (priority 2001, published 2004).

Biological target: factor Xa (Homo sapiens, UniProt P00742)
Test: Inhibition of factor Xa
Format: biochemical
Conditions: Affinity to receptors
Description: The inhibition of factor Xa by the compounds according to the invention and the measurement of the anticoagulant and antithrombotic activity can be determined by conventional in-vitro or in-vivo methods. A suitable method is described, for example, by J. Hauptmann et al. in Thrombosis and Haemostasis 1990, 63, 220-223.
The inhibition of factor Xa can be measured, for example by the method of T. Hara et al. in Thromb. Haemostas. 1994, 71, 314-319.

Sequence of factor Xa (P00742 235-488 limits assumed): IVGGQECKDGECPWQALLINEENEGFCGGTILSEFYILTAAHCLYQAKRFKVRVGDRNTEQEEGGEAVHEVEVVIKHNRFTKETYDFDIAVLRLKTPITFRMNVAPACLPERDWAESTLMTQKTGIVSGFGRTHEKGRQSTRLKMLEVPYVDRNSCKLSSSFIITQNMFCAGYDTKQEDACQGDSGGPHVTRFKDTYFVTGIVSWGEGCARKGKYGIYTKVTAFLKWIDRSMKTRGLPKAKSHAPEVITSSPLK
Sequence of factor Xa (P00742 41-179 partner limits assumed): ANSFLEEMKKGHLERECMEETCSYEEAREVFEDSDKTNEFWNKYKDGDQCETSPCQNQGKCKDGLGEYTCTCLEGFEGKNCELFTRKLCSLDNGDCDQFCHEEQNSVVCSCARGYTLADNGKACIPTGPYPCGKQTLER

Row | SMILES | IC50
1 | COC(=O)NC(=N)c1cccc(CN(CC(C)C)C(=O)C(=O)Nc2ccc(-c3ccccc3S(C)(=O)=O)cc2)c1 [Example 4, Methyl [imino-(3-{[isobutyl-(2′-methanesulfonylbiphenyl-4-ylaminooxalyl)amino]methyl}phenyl)methyl]carbamate] | 3.5 µM
2 | CC(C)CN(Cc1cccc(C(=N)N)c1)C(=O)C(=O)Nc1ccc(-c2ccc(CN)cc2)cc1 [Example 6, N-(4′-Aminomethylbiphenyl-4-yl)-N′-(3-amidinobenzyl)-N′-isobutyloxalamide] | 1.5 µM
3 | CC(C)CN(Cc1cccc(C(=O)O)c1)C(=O)C(=O)Nc1ccc(-c2ccccc2S(N)(=O)=O)cc1 [Example 7, 3-{[Isobutyl-(2′-sulfamoylbiphenyl-4-ylaminooxalyl)amino]methyl}benzoic acid] | 6 µM

Now those with a lower IC50, led by results:

Row | IC50 | SMILES
4 | 0.01 µM | CC(C)CN(Cc1cccc(C(=N)N)c1)C(=O)C(=O)Nc1ccc(-c2ccccc2S(N)(=O)=O)cc1 [Example 1, N-(3-amidinobenzyl)-N-isobutyl-N′-(2′-sulfamoylbiphenyl-4-yl)oxalamide]
5 | 0.3 µM | CC(C)CN(Cc1cccc(C(=N)N)c1)C(=O)C(=O)Nc1ccc(-c2ccccc2S(=O)(=O)NC(C)(C)C)cc1 [Example 1g, N-(2′-tert-butylsulfamoylbiphenyl-4-yl)-N′-(3-amidinobenzyl)-N′-isobutyloxalamide]
6 | 0.0096 µM | CC(C)CN(Cc1cccc(C(=N)N)c1)C(=O)C(=O)Nc1ccc(-c2ccccc2S(C)(=O)=O)cc1 [Example 3, N-(3-amidinobenzyl)-N-isobutyl-N′-(2′-methanesulfonylbiphenyl-4-yl)oxalamide]
7 | 1 µM | CC(C)CN(Cc1cccc(C(=N)N)c1)C(=O)C(=O)Nc1ccc(-c2ccc(C(=N)N)cc2)cc1 [Example 5, N-(3-amidinobenzyl)-N′-(4′-amidinobiphenyl-4-yl)-N-isobutyloxalamide]
